Where two headings read alike, the source gives them in different places. *1 amine or outer side, *2 acyl side, *3 side chain or, on linkers, in order; H or OH if unused. Where a SMILES comes first, the peptide text is derived from it. Bridges are numbered along the chain shown (N, C = ends). [ ]: non-standard residue; d: D form. The star is where a group is joined. pTerphenylCO(4''-OnC5H11) = CCCCCOc1ccc(-c2ccc(-c3ccc(C(=O)*)cc3)cc2)cc1; Orn(4R-OH,5R-OH) = O=C([C@H](C[C@@H](O)[C@@H](O)N[*:3])N[*:1])[*:2]; hTyr(3S-OH,4S-OH) = N[C@H](C(=O)O)[C@H](O)[C@@H](O)c1ccc(O)cc1; Pro(3S-OH,4S-Me) = C[C@H]1CN[C@H](C(=O)O)[C@H]1O; Dip = N[C@H](C(=O)O)C(c1ccccc1)c1ccccc1; Hyp = O=C(O)[C@@H]1C[C@@H](O)CN1
Molecular target: BTK (Homo sapiens, UniProt Q06187)
Sequence (Q06187 402-655 limits assumed): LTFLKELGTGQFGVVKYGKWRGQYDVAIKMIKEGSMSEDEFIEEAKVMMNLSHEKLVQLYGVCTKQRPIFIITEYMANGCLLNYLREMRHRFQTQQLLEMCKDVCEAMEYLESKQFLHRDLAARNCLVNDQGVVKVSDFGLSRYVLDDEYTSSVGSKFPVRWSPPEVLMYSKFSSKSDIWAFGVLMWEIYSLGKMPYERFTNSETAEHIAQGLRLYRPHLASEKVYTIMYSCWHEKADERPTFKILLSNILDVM
Experiment: biochemical
[1] = read-out: BTK inhibition (%), 0.75 uM BTK, […] probe 3l, 15 min preincubation

| Compound | inhibition at 10 µM [1] [%] | inhibition at 10 µM (read-out: BTK inhibition (%)) [%] |
| --- | --- | --- |
| C[C@@H]1O[C@@H](O[C@H]2[C@H](O[C@H]3CC[C@@]4(C)[C@@H](CC[C@]5(C)[C@@H]4CC=C4[C@@H]6CC(C)(C)CC[C@]6(C(=O)O[C@@H]6O[C@H](CO[C@@H]7O[C@H](CO)[C@@H](O)[C@H](O)[C@H]7O)[C@@H](O)[C@H](O)[C@H]6O)CC[C@]45C)[C@]3(C)CO)OC[C@H](O)[C@@H]2O)[C@H](O)[C@H](O[C@@H]2O[C@H](CO)[C@@H](O)[C@H](O)[C@H]2O)[C@H]1O [PCM-0216447] | -21.6 | – |
| COc1ccc([C@@H]2OC[C@H]3[C@@H]2CO[C@@H]3c2ccc(O[C@@H]3O[C@H](CO)[C@@H](O)[C@H](O)[C@H]3O)c(OC)c2)cc1OC [PCM-0215021] | -6.2 | – |
| CCC(C)SSc1ncc[nH]1 (stereo not drawn) [PCM-0215586] | 2.3 | – |
| COC(=O)C1=CO[C@@H](O[C@@H]2O[C@H](CO)[C@@H](O)[C@H](O)[C@H]2O)[C@@H]2C(CO)=C[C@H](O)[C@H]12 [PCM-0216324] | -7.7 | – |
| O=C(O)P(=O)(O)O [PCM-0090233] | 1.6 | – |
| NCCCC[C@H](NC(=O)[C@@H](NC(=O)[C@H](Cc1c[nH]c2ccccc12)NC(=O)[C@H](CCCCN)NC(=O)[C@H](CCCCN)NC(=O)[C@H](Cc1c[nH]c2ccccc12)NC(=O)[C@H](Cc1c[nH]c2ccccc12)NC(=O)[C@H](CCCCN)NC(=O)[C@@H](N)CCCCN)C(c1ccccc1)c1ccccc1)C(N)=O [PCM-0215623] (H-KKWWKKW[Dip]K-NH2) | -11.1 | – |
| Nc1ccc(Cl)cc1C(=O)C(F)(F)F [PCM-0216158] | 23.2 | – |
| CC(C)c1cc2c(N3CCN(C4=NCC(C)(C)S4)CC3)ncnc2s1 [PCM-0215379] | -7.7 | – |
| CC(=O)N[C@@H](CC(C)C)C(=O)N[C@@H](CC(C)C)C(=O)N[C@H](C=O)CCCN=C(N)N [PCM-0215331] | 9.3 | – |
| c1cnc2cc3c(cc2n1)[C@@H]1CNC[C@H]3C1 [PCM-0064570] | -31.5 | – |
| CCCCCOc1ccc(-c2ccc(-c3ccc(C(=O)N[C@H]4C[C@@H](O)[C@@H](O)NC(=O)[C@@H]5[C@@H](O)[C@@H](C)CN5C(=O)[C@H]([C@@H](C)O)NC(=O)[C@H]([C@H](O)[C@@H](O)c5ccc(O)cc5)NC(=O)[C@@H]5C[C@@H](O)CN5C(=O)[C@H]([C@@H](C)O)NC4=O)cc3)cc2)cc1 [PCM-0214798] ({pTerphenylCO(4''-OnC5H11)}-[Orn(4R-OH,5R-OH)]T[Hyp][hTyr(3S-OH,4S-OH)]T[Pro(3S-OH,4S-Me)]; lactam 1-C) | 122 | – |
| CC12CCC(CC1=O)C2(C)C (stereo not drawn) [PCM-0214819] | -3.9 | – |
| Cc1ccc(C(C)C)cc1O [PCM-0215926] | -21.4 | – |
| CC(=O)OCC(=O)[C@@]12N=C(C)O[C@@H]1C[C@H]1[C@@H]3CCC4=CC(=O)C=C[C@]4(C)[C@H]3[C@@H](O)C[C@@]12C [PCM-0086410] | -7.6 | – |
| COc1cc(O)c2c(c1)C(=O)c1cc(C)cc(O)c1C2=O [PCM-0088700] | 11.1 | – |
| CC(C)CCN1c2nc(Nc3cc(F)c(O)c(F)c3)ncc2N(C)C(=O)C1C (stereo not drawn) [PCM-0095469] | 48.3 | – |
| C=C1C[C@@]23CC[C@H]4[C@@](C)(CCC[C@@]4(C)C(=O)O)[C@@H]2CC[C@@H]1C3 [PCM-0216330] | -3.9 | – |
| NC(=O)c1ccc[n+]([O-])c1 [PCM-0215057] | 5.4 | – |
| OC[C@@H](O)[C@@H](O[C@H]1O[C@H](CO)[C@@H](O)[C@H](O)[C@H]1O)[C@H](O)[C@@H](O)CO [PCM-0215074] | -16.3 | – |
| C=C[C@@]1(C)CC(=O)[C@]2(O)[C@@]3(C)[C@@H](O)CCC(C)(C)[C@@H]3[C@H](O)[C@H](OC(C)=O)[C@@]2(C)O1 [PCM-0095317] | -17.1 | – |
| CN(C)c1ccc2nc3c(C(=O)O)cc(=O)c(O)c-3oc2c1 [PCM-0216583] | 88 | – |
| C#C[C@]1(O)CC[C@H]2[C@@H]3CCC4=CC(=O)CC[C@@H]4[C@H]3C(=C)C[C@@]21CC [PCM-0214842] | 3.1 | – |
| C[C@@H](Nc1nc(N[C@H](C)C(F)(F)F)nc(-c2cccc(Cl)n2)n1)C(F)(F)F [PCM-0215864] | -3.9 | – |
| O=c1[nH]c2ccc(Cl)cc2c(N[C@@H]2CN3CCC2CC3)c1-c1nc2ccccc2[nH]1 [PCM-0095378] | 0 | – |
| O=Cc1ccccc1O[C@@H]1O[C@H](CO)[C@@H](O)[C@H](O)[C@H]1O [PCM-0215148] | -15.6 | – |
| COc1ccc(/C=C/c2cc(O)cc(O[C@@H]3O[C@H](CO)[C@@H](O)[C@H](O)[C@H]3O)c2)cc1O [PCM-0214544] | 6.9 | – |
| COCC1=C(C(=O)OC(C)OC(=O)OC(C)C)N2C(=O)[C@@H](NC(=O)/C(=N\OC)c3csc(N)n3)[C@H]2SC1 (stereo partly drawn) [PCM-0216141] | -11.6 | – |
| CCN1C[C@]2(COC)CC[C@H](OC)[C@]34C1[C@H](C[C@H]23)[C@@]1(O)C[C@H](OC)[C@H]2C[C@@H]4[C@@H]1[C@H]2O [PCM-0216478] | – | 10.8 |
| CN1C(CCl)Nc2cc(Cl)c(S(N)(=O)=O)cc2S1(=O)=O (stereo not drawn) [PCM-0095604] | -2.3 | – |

Now from value to compound, other results behind:

| inhibition at 10 µM [1] [%] | Compound | inhibition at 10 µM (read-out: BTK inhibition (%)) [%] |
| --- | --- | --- |
| 2.8 | COc1cc(C(=O)N2CCC(N3CCN(C)CC3)CC2)ccc1Nc1ncc2c(n1)N(C)c1ccccc1C(=O)N2C [PCM-0215491] | – |
| -10.1 | O=C(O)c1ccc(NC(=O)[C@H](Cc2ccc(O)cc2)NC(=O)c2ccccc2)cc1 [PCM-0215250] | – |
| 13.2 | Cn1nnc(-c2ccc(-c3ccc(N4C[C@H](COP(=O)(O)O)OC4=O)cc3F)cn2)n1 [PCM-0214830] | – |
| 53.1 | N#C/C(=C\c1ccc(O)c(O)c1)C(=O)NCc1ccccc1 [PCM-0094962] | – |
| -17 | Cc1cc(C)nc(NC(=S)N2CCN(Cc3ccc(C(F)(F)F)cc3)CC2)c1 [PCM-0215867] | – |
| 0.7 | COc1ccc(-c2ccc3ncc4c(c3c2)n(-c2ccc(N3CCNCC3)c(C(F)(F)F)c2)c(=O)n4C)cn1 [PCM-0095488] | – |
| -2.6 | CCN(c1cc(-c2ccc(CN3CCOCC3)cc2)cc(C(=O)NCc2c(C)cc(C)[nH]c2=O)c1C)C1CCOCC1 [PCM-0095796] | – |
| 4.7 | CC[C@@H]([C@H](C)O)n1ncn(-c2ccc(N3CCN(c4ccc(OC[C@@H]5CO[C@@](Cn6cncn6)(c6ccc(F)cc6F)C5)cc4)CC3)cc2)c1=O [PCM-0214608] | – |
| 3.9 | O=C(Nc1ccc(Br)cc1)c1c(O)cccc1O [PCM-0215136] | – |
| -8.6 | CCOC(=O)CC(=O)N1CCSC1COc1ccccc1OC (stereo not drawn) [PCM-0090669] | – |
| 73.8 | O=C(Nc1cccc2c(=O)cc(-c3nn[nH]n3)oc12)c1ccc(OCCCCc2ccccc2)cc1 [PCM-0095155] | – |
| 21.3 | Cc1onc(-c2ccccc2)c1C(=O)N[C@@H]1C(=O)N2[C@@H]1SC(C)(C)[C@@H]2C(=O)O [PCM-0215187] | – |
| -13.6 | O=c1cc(N2CCOCC2)oc2c(-c3cccc4c3sc3ccccc34)cccc12 [PCM-0095522] | – |
| -4.8 | O=C(Nc1cccnc1)N1CCC(Cc2cccc(Oc3ccc(C(F)(F)F)cn3)c2)CC1 [PCM-0095330] | – |
| 49.8 | O=C1c2ccccc2C(=O)c2c1ccc(O)c2O [PCM-0095289] | – |
| 34 | CCCCCCCCCCCCCc1cccc(O)c1C(=O)O [PCM-0216334] | – |
| 37.4 | Clc1ccc(CCC(Cn2ccnc2)Sc2c(Cl)cccc2Cl)cc1 (stereo not drawn) [PCM-0085946] | – |
| -0.8 | COC(=O)c1ccc2c(c1)[nH]c1ncnc(NCCCN3CCCCC3)c12 [PCM-0215451] | – |
| 17.9 | COC(=O)Nc1nc2ccc([S+]([O-])c3ccccc3)cc2[nH]1 (stereo not drawn) [PCM-0086213] | – |
| 0 | C[C@@H](NCCc1ccc(O)cc1)[C@@H](O)c1ccc(O)cc1 [PCM-0214689] | – |

| inhibition at 10 µM [1] [%] | Compound | inhibition at 10 µM (read-out: BTK inhibition (%)) [%] |
| --- | --- | --- |
| 64.9 | C[n+]1c2ccccc2nc2ccccc21 [PCM-0216061] | – |
| -17.9 | NC(=O)c1cn(Cc2c(F)cccc2F)nn1 [PCM-0065619] | – |
| 47.9 | Cc1nc(Nc2ncc(C(=O)Nc3cc(NC(=O)c4cccc(C(F)(F)F)c4)ccc3C)s2)cc(N2CCN(CCO)CC2)n1 [PCM-0216225] | – |
| -6.2 | Oc1ccc([C@H]2COc3cc(O)ccc3C2)cc1 [PCM-0095319] | – |
| 1.4 | CC(C)(C)c1cc(NC(=O)Nc2ccc(-c3cn4c(n3)sc3cc(OCCN5CCOCC5)ccc34)cc2)no1 [PCM-0095196] | – |
| 7 | CN1C2=C3N=c4ccccc4=C3CCN2C(=O)c2ccccc21 [PCM-0214954] | – |
| -40 | Cn1ncc(Cl)c1-c1cc(C(=O)N[C@H](CN)Cc2cccc(F)c2)sc1Cl [PCM-0215459] | – |
| -8.6 | CCOC(=O)Nc1ccc(NCc2ccc(F)cc2)nc1N [PCM-0065288] | – |
| -5.4 | COC(=O)[C@H](O)[C@@H](NC(=O)c1ccccc1)c1ccccc1 [PCM-0216282] | – |
| 22.1 | CN1CCC(COc2cnc(-c3cccc(Cn4nc(-c5cccc(C#N)c5)ccc4=O)c3)nc2)CC1 [PCM-0215322] | – |
| 73.8 | CCc1nc(C(N)=O)c(Nc2ccc(N3CCC(N4CCN(C)CC4)CC3)c(OC)c2)nc1NC1CCOCC1 [PCM-0215866] | – |
| 12.8 | Cc1c(-c2ccccc2)oc2c(C(=O)OCCN3CCCCC3)cccc2c1=O [PCM-0085770] | – |
| -17.9 | O=C(O)CCCN1CCC(O[C@@H](c2ccc(Cl)cc2)c2ccccn2)CC1 [PCM-0214802] | – |
| 57.9 | CCN(CC)C[C@@H](O)CNc1ccc(NC[C@H]2CO2)c2c1C(=O)c1ccccc1C2=O [PCM-0215722] | – |
| -11.7 | COc1cc2nc(N3CCN(C(=O)C4COc5ccccc5O4)CC3)nc(N)c2cc1OC (stereo not drawn) [PCM-0065300] | – |
| -2.1 | CCOc1ccc(Cc2cc([C@@H]3O[C@H](CO)[C@@H](O)[C@H](O)[C@H]3O)ccc2Cl)cc1 [PCM-0095107] | – |
| 93.4 | CC(C)CN(CC(=O)N1CCN(CC(OCc2ccc3ccccc3c2)c2ccc(Cl)cc2Cl)CC1)CC(C)C (stereo not drawn) [PCM-0215889] | – |
| -2.3 | Cc1cc(C)cc(NC(=O)Cc2ccc(OC(C)(C)C(=O)O)cc2)c1 [PCM-0214786] | – |
| 6.2 | CN(C)[C@@H](CCOc1cccc2ccccc12)c1ccccc1 [PCM-0095178] | – |
| 8.3 | Nc1ncc(-c2ccnc(Nc3ccncc3)n2)c(CC2CC2)n1 [PCM-0215628] | – |

From publication PMC8041284, “Tunable Methacrylamides for Covalent Ligand Directed Release Chemistry” (Journal of the American Chemical Society, 2021)
